Several values for one entry are separate records, joined by “and”; a condition that tells them apart may be missing. Identical values can stand only once.
What was measured:
dNCS-1 [1] = molecular target: T1, dNCS-1 (Drosophila melanogaster, UniProt Q9VWX8); experiment: tr-NOESY, DOSY and 1H-NMR of DCL mixtures in the presence of dNCS-1; format: binding; details: 281 K, up to 15 days
T1 construct: made in house; host or cells: E. coli
T1 sequence (Q9VWX8 1-187): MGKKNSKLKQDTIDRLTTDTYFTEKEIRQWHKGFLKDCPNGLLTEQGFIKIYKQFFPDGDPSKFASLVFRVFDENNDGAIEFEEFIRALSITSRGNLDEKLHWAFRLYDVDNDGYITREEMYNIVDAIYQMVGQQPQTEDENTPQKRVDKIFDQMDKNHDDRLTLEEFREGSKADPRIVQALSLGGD
Method: Fig. 4 HPLC-MS and NMR studies of the full dynamic combinatorial library. a DCL chromatograms after 5 h in the absence and in the presence of dNCS-1. Conditions: aldehyde 1 (1.2 µL, 50 mM), 2a–2e (3.6 µL, 50 mM), catalyst (1 µL, 12 M), dNCS-1:1 [1:1], Tris buffer (20 mM, pH 7.4), 1 mM CaCl2, 0.5 M NaCl, 1 mM DTT, T = 4 °C, 2% DMSO. DCC experiments were carried out in triplicate. b 1D-^1H NMR spectrum (red) of the mixture and DOSY experiment (black) of the DCL in the presence of dNCS-1 (281 K, 600 MHz). c Tr-NOESY spectrum of the DCL mixture in the presence of dNCS-1 (mixing time 200 ms, 281 K, 600 MHz). Amplification of the region δ 7.2–8.0 ppm. […]. The new signals that reveal the formation of 3b (aromatic region) and 2c (aliphatic region) are marked with stars. ^1H-STD-NMR (blue) and off-resonance (red) NMR spectra of the mixture 2b + 3c + dNCS-1 (281 K, 600 MHz) after 15 days
DOSY-NMR and tr-NOESY-NMR experiments were also recorded to follow the exchange process.
The experiments were performed on the same samples and spectrometer, at 281 K. The tr-NOESY mixing time was fixed at 200 ms. The DOSY experiments were acquired with 16 gradient increments to a final intensity decay of 90%.

dNCS-1 [2] = molecular target: T1, dNCS-1; experiment: Protein-directed DCL, HPLC-MS relative peak area with and without dNCS-1
Method: The reversibility of the DCL was evident, since an identical equilibrium distribution to that shown in Fig. 4a was obtained when two different starting points were employed. The observed degree of amplification was 3b > 3e ≥ 3d > 3a. The precise composition of the DCL (with and without dNCS-1), was assessed by measuring the relative peak area (RPA). Indeed, the normalized change of RPA was used to quantify the protein influence in the final outcome (Supplementary Figs. 9, 10 and Supplementary Tables 1, 2 and 3)[28]. […] Note that compounds 3a–3e can exist as E/Z isomers of the C = N bond. […].
Aldehyde 1 (1.2 μL, 50 mM, DMSO), the five acylhydrazides 2a–2e (5 × 3.6 μL, 50 mM, DMSO), p-anisidine (1 μL, 12 M, DMSO) and buffer 20 mM Tris, 0.5 M NaCl and 1 mM CaCl2, 1 mM DTT at pH 7.4 (750 μL) in 3.3 % DMSO. The mixture was stabilized in 5 h at 4 °C. HPLC analysis was performed.
Aldehyde 1 (1.2 μL, 50 mM, DMSO), the five acylhydrazides 2a–2e (5 × 3.6 μL, 50 mM, DMSO), p-anisidine (1 μL, 12 mM, DMSO) and dNCS-1 in buffer 20 mM Tris, 0.5 M NaCl and 1 mM CaCl2, 1 mM DTT at pH 7.4 (66.7 μM, 750 μL, 1 eq.). The experiment is in 3.3% DMSO. The mixture was stabilized for 5 h at 4 °C. Then, dNCS-1 was removed by ultrafiltration using an Amicon Ultra filter (0.5–10 KDa). HPLC analysis was performed and the traces were compared with the blank composition.
Supplementary Figure 9. Relative Peak Area of the DCL with and without dNCS1. Aldehyde
1 (1.2 µL, 50 mM), 2a-e (3.6 µL, 50 mM), catalyst (1 µL, 12 M), dNCS-1:1 [1:1], tris buffer (20
mM, pH 7.4), 1 mM CaCl2, 0.5 M NaCl, 1 mM DTT, T = 4 °C, 2% DM SO. Mean relative peak
area (RPA) of each acylhydrazone of the library in the absence (blank) and presence of dNCS-1.
Error bars indicate standard deviation (SD) over three experiments. The calculation is set by the
sum of all peak areas to 100% and assigning each peak its percentage. Source data are provided
R P A N o rm aliz ed V a riation
Supplementary Figure 10. RPA normalized of variation of DCL with and without dNCS1.
Aldehyde 1 (1.2 µL, 50 mM), 2a-e (3.6 µL, 50 mM), catalyst (1 µL, 12 M), dNCS-1:1 [1:1], tris
buffer (20 mM, pH 7.4), 1 mM CaCl2, 0.5 M NaCl, 1 mM DTT, T = 4 °C, 2% DM SO. Error
bars indicate SD over three experiments. Source data are provided as a Source Data file.

dNCS-1 [3] = molecular target: T1, dNCS-1; experiment: Tryptophan emission fluorescence of dNCS-1 at increasing ligand concentrations (apparent Kd); format: binding
Method: Fluorescence-based experiments with 3a–3e were carried out to estimate their affinity to dNCS-1.
Mean ± SD from three independent experiments. The curves represent the least squares fitting of the experimental data to a 1:1 stoichiometry. To properly compare the different curves, intensities were normalized and represented. […] Input represents 1/10 cell lysates before IP. Quantifications of each lane from four experiments are shown below the blots. Bars represent percentage of NCS-1/ Ric8a binding (mean ± SD) normalized to DMSO. […] Mean ± SD from three independent experiments. […] Then, the percentage of picnotic bodies over the total nuclei was analyzed. Mean ± SD from three independent experiments. Paired two-tailed Student’s test ***P˂0.001; **P < 0.01; *P < 0.05. Source data are provided as a Source Data file. IP immunoprecipitation, WB western blot […]
the length of the pass light (L) is 1cm (see Supplementary Table 3 and Supplementary […]
Fluorescence emission experiments. Tryptophan emission fluorescence of dNCS-1 […]
affinity and calculate the apparent dissociation constant, Kd. Fluorescence measurements were performed by Jobin Yvon Floromax4 spectrofluorimeter equipped […]
5% DMSO at 5 °C. The excitation wavelength was fixed at 295 nm, and the emission spectra range were collected over 300-400 nm.
Then, three independent experiments were performed
Fluorescence intensities were normalized and represented as (I0 − I)/I 0. I stands for the observed fluorescence emission at 345 nm (fluorescence maximum), and I0 is the observed fluorescence emission of the protein itself without any small molecule. The apparent dissociation constant was obtained using a least squares algorithm to fit the experimental data to a 1:1 stoichiometry model.6 The fitting was performed with KaleidaGraph Data Analysis Program. […]
Protein expression and purification. Drosophila and human NCS-1 were over-expressed in E. coli and subsequently purified to homogeneity as previously described.9

NCS-1/Ric8a interaction [4] = tested on: NCS-1/Ric8a interaction; design: method as in PMID 28119500, PMID 29966094; details: cited from earlier work
NCS-1/Ric8a interaction [5] = molecular target: T2, NCS-1/Ric8a interaction (Homo sapiens, UniProt P62166); experiment: Co-IP binding assay of human NCS-1 and V5-tagged Ric8a in transfected HEK cells; format: cell-based; details: compound 20 μM
T2 construct: expressed in transfected cells; host or cells: HEK293 cells (Dharmacon)
From the text: (§1) Mean ± SD from three independent experiments. The curves represent the least squares fitting of the experimental data to a 1:1 stoichiometry. To properly compare the different curves, intensities were normalized and represented. […] Input represents 1/10 cell lysates before IP. Quantifications of each lane from four experiments are shown below the blots. Bars represent percentage of NCS-1/ Ric8a binding (mean ± SD) normalized to DMSO. […] CNS + (green) for Pe > 4.47 × 10^−6 cm s^−1, CNS- (red) for compounds with Pe < 4.47 × 10^–6 cm s^−1. […] Mean ± SD from three independent experiments. […] Then, the percentage of picnotic bodies over the total nuclei was analyzed. Mean ± SD from three independent experiments. Paired two-tailed Student’s test ***P˂0.001; **P < 0.01; *P < 0.05. Source data are provided as a Source Data file. IP immunoprecipitation, WB western blot
Binding assays with NCS-1 and Ric8a in co-transfected HEK cells were carried out to study the modulation effect of compounds 3a, 3b and 3d in the protein-protein interaction (Fig. 6b).
hNCS-1 and V5-tagged hRic8a were co-transfected into HEK293 cells (Dharmacon) using Lipofectamine 2000 (Invitrogen)[13]. After 24 h, after transfection, DMSO alone or the compounds dissolved in DMSO (20 μM) were added to the culture cells. Then, 24 h after transfection, cells were lysed with Lysis buffer (150 mM NaCl, 1.0% Nonidet P-40, 50 mM Tris, pH 8.0) in the presence of the compounds (20 μM), whose concentration was maintained throughout the immunoprecipitation assay. Precleared lysates were incubated overnight (12 h) at 4 °C with mouse anti-NCS-1 (1:500; Cell Signaling). Samples were subsequently incubated overnight with Protein-G-Sepharose (Sigma-Aldrich), washed and eluted from the Sepharose. Samples were analyzed by Western blot following standard procedures. […] Original representative western blots are found in Source Data file.

[6] = tested on: Cortical neurons from E14 wild-type mice; experiment: Toxicity in primary cultured neurons (percentage of picnotic bodies); format: cell-based; details: C57BL6J, mouse, 24 h
From the text: as §1
Finally, cell toxicity in neurons was quantified as percentage of picnotic bodies for 3b (Fig. 6d).
Cortical neurons were obtained from E14 wt mice (C57BL6J). Mice were maintained in accordance to European law and following Hospital Ramón y Cajal´s animal guidelines. […] Three independent experiments counting cells from three different wells per concentration were performed. To analyzed cell death, neurons were fixed and stained with DAPI.

[7] = Ca2+ loaded dNCS-1 0.8 µM, pH 7.9, 5% DMSO, 5 °C, fit to 1:1 stoichiometry, three independent experiments

T2 sequence (P62166 2-190 limits assumed): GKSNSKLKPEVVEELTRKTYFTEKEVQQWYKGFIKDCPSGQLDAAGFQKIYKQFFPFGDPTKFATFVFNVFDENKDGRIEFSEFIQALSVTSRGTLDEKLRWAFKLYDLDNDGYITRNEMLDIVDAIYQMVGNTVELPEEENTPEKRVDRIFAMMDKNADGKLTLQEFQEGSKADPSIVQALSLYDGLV

COCCC(=O)N/N=C/c1ccc([N+](=O)[O-])c(O)c1 [3c]
binding to dNCS-1 (1H-NMR evolution of the mixture 3c + 2b with dNCS-1) (dNCS-1 [1]): extremely weak or non-binder | degree of amplification in the DCL in presence of dNCS-1 (dNCS-1 [2]; after 5 h, 4 °C, pH 7.4, p-anisidine catalyst): clearly reduced in presence of dNCS-1 | RPA, Blank DCL (dNCS-1 [2]; as fraction of total area): 0.09603 | RPA, Templated DCL (dNCS-1 [2]; as fraction of total area, with dNCS-1): 0 | RPA (%) with protein (templated DCL) (dNCS-1 [2]; relative peak area in presence of dNCS-1): 0% | RPA (%) without protein (blank DCL) (dNCS-1 [2]; relative peak area, sum of all peak areas set to 100%): 9.6% and 9.603% | RPA (%), Blank DCL (dNCS-1 [2]; sheet Supplementary Figure 10): 9.6% | RPA (%), Templated DCL (dNCS-1 [2]; sheet Supplementary Figure 10, with dNCS-1): 0% | Normalized Change of RPA (dNCS-1 [2]; with vs without dNCS-1): -1 | apparent Kd (dNCS-1 [3]; [7]): did not show affinity

CN(C)CCCN1c2ccccc2Sc2ccc(Cl)cc21 [CPZ, Chlorpromazine, reference compound]
reported inhibition of the NCS-1/Ric8a interaction (NCS-1/Ric8a interaction [4]): mild inhibitor and mild | Kd (dNCS-1 [3]; [7]): 12 ± 2 µM | Normalized Fluorescence I0-I/I0 (dNCS-1 [3]; ligand 3.2 μM): 0.266 | Normalized Fluorescence I0-I/I0 (dNCS-1 [3]; ligand 6.4 μM): 0.263 | Normalized Fluorescence I0-I/I0 (dNCS-1 [3]; ligand 8 μM): 0.448 | Normalized Fluorescence I0-I/I0 (dNCS-1 [3]; ligand 16 μM): 0.643 | Normalized Fluorescence I0-I/I0 (dNCS-1 [3]; ligand 24 μM): 0.730 | Normalized Fluorescence I0-I/I0 (dNCS-1 [3]; ligand 32 μM): 0.794 | modulation of the NCS-1/Ric8a binding (NCS-1/Ric8a interaction [5]; compared with DMSO (basal binding 100%)): reduced binding | Densitometry of V5-Ric8a co-immunoprecipitated with NCS-1, exp3 (NCS-1/Ric8a interaction [5]; DMSO in the same experiment 4613104): 3547054 | Densitometry of V5-Ric8a co-immunoprecipitated with NCS-1, exp2 (NCS-1/Ric8a interaction [5]; DMSO in the same experiment 9508518): 4354560 | Densitometry of V5-Ric8a co-immunoprecipitated with NCS-1, exp1 (NCS-1/Ric8a interaction [5]; DMSO in the same experiment 19247016): 3883518 | percentage of picnotic bodies over total nuclei, average ([6]; 0.2 μM): 11.1667% | percentage of picnotic bodies, % exp 2 ([6]; 0.2 μM): 9.6% | percentage of picnotic bodies, % exp 3 ([6]; 0.2 μM): 11.1% | percentage of picnotic bodies, % exp.1 ([6]; 0.2 μM): 12.8% | percentage of picnotic bodies over total nuclei, average ([6]; 2 μM): 15.1% | percentage of picnotic bodies, % exp 2 ([6]; 2 μM): 11% | percentage of picnotic bodies, % exp 3 ([6]; 2 μM): 19.3% | percentage of picnotic bodies, % exp.1 ([6]; 2 μM): 15% | percentage of picnotic bodies over total nuclei, average ([6]; 10 μM): 22.2333% | percentage of picnotic bodies, % exp 2 ([6]; 10 μM): 25.7% | percentage of picnotic bodies, % exp 3 ([6]; 10 μM): 15% | percentage of picnotic bodies, % exp.1 ([6]; 10 μM): 26% | percentage of picnotic bodies over total nuclei, average ([6]; 20 μM): 38.7667% | percentage of picnotic bodies, % exp 2 ([6]; 20 μM): 29.3% | percentage of picnotic bodies, % exp 3 ([6]; 20 μM): 39% | percentage of picnotic bodies, % exp.1 ([6]; 20 μM): 48%

Reference: publication PMC6595003, “Insights into real-time chemical processes in a calcium sensor protein-directed dynamic library” (Nature Communications, 2019)
